Like-named read-outs stand apart in the source and are kept apart here. Peptide text beside a SMILES is read from it.
Tests used:
[1] = tested on: AGE2 production by glyceraldehyde and bovine serum albumin; experiment: Inhibition of AGE2 production by glyceraldehyde and serum albumin (ELISA with anti-AGE2 polyclonal antibody); conditions: read-out: IC50 of inhibition of AGE2 production; 10 mM glyceraldehyde, 10 mg/ml bovine serum albumin, phosphate buffer pH 7.4, 37° C., 3 days
Description: (§1) Three days later, AGE2 concentration of the reaction mixture was measured, and IC50 value of inhibition of AGE2 production by each peptide or amino acid was calculated. The AGE2 measurement was performed by the ELISA method using an anti-AGE2 polyclonal antibody prepared from rabbit, according to a conventional method.

[2] = tested on: AGE2 production by glyceraldehyde and bovine serum albumin; conditions: pH 7.4
Description: as §1

[3] = AGE2-producing capability by reaction of oligopeptide with glyceraldehyde (ELISA with anti-AGE2 polyclonal antibody); assay type: biochemical; conditions: for AGE2 concentration: 10 mM amino acid or peptide + 100 mM glyceraldehyde, 0.1M phosphate buffer pH 7.4, 37° C., 1 week
Description: To 0.1M phosphate buffer (pH 7.4) containing 10 mM of any of Lys, Lys-Lys, Lys-Lys-Lys, and Lys-Lys-Lys-Lys (SEQ ID NO: 1) was added 100 mM glyceraldehyde and the mixture was reacted at 37° C. for 1 week. One week later, the AGE2 concentration of the reaction mixture was measured.

serum AGE2 = experiment: Serum AGE2 concentration reduction in diabetic mouse model (db/db mouse); assay type: in vivo; conditions: db/db mice
Description: 7-Week-old male db/db mice were randomly divided into 4 groups (3 per group), distilled water, 10 mM Lys-Lys solution, 30 mM Lys-Lys solution, or 100 mM Lys-Lys solution was freely given for 10 days as drinking water, blood samples were collected from the heart, and the serum AGE2 concentration was measured.

Compound	IC50 [1] [µM]	IC50 ([2]; bovine, 3 days) [µM]	AGE2 concentration [3] [U/ml]	also measured
N=C(N)NCCC[C@H](N)C(=O)O [Arg, reference compound]	1900			
NCCCC[C@H](NC(=O)[C@@H](N)CCCN=C(N)N)C(=O)O [Arg-Lys] (H-Arg-Lys-OH)		780		
NCCCC[C@H](N)C(=O)O [Lys, reference compound]			0.47	IC50 [2]: 2200 µM
NCCCC[C@H](NC(=O)[C@H](CCCCN)NC(=O)[C@H](CCCCN)NC(=O)[C@@H](N)CCCCN)C(=O)O [Lys-Lys-Lys-Lys] (H-KKKK-OH)	620		14.2	
NCCCC[C@H](NC(=O)[C@@H](N)CCCCN)C(=O)O [Lys-Lys]		560	4.7	AGE2 production capacity relative to Lys alone ([3]; reaction with glyceraldehyde, versus Lys alone): about 10 times; serum AGE2 concentration (serum AGE2; 10 mM solution as drinking water for 10 days): 3.5 ± 0.6 U/ml; serum AGE2 concentration (serum AGE2; 30 mM solution as drinking water for 10 days): 2.3 ± 0.4 U/ml; serum AGE2 concentration (serum AGE2; 100 mM solution as drinking water for 10 days): 1.7 ± 0.2 U/ml; serum AGE2 concentration, dose dependence (serum AGE2; 10-100 mM solution as drinking water for 10 days): decreased in a manner dependent on the Lys-Lys concentration

Source: patent US20070049535A1, “PREVENTIVE/REMEDY FOR DIABETIC COMPLICATIONS USING OLIGOPEPTIDE” (priority 2004, published 2007)
